This is an account of results in patent US9340559B2, “Proteasome inhibitor delanzomib for use in the treatment of lupus” (Cephalon, Inc., priority 2011, dated 2016).

Each structure is given as a SMILES string.

For data set [1], the system named is NZM mice. Description: Renal histopathology blinded scores, NZM mice (Example 3). It counts as in vivo, mouse. The method, then: FIG. 52 depicts renal histopathology scores from NZM mice (H&E stained paraffin wax embedded kidney tissues sections from 25 week old mice).
For histological analyses, the left kidney from each animal is removed and fixed in 10% buffered neutral formalin (EMD) for 48 hours on an orbital rocker at 25° C., then washed overnight with running dH2O and stored in 70% ethanol at 4° C. until ready to be processed. Kidney stains used for histological analyses included hematoxylin and eosin (H&E), Periodic Acid Schiff (PAS) and Trichrome stains (Wistar Institute, Philadelphia, Pa.). All 3 stained sections are used by the pathologist for scoring purposes. All histological scoring is performed blinded and by an independent board certified veterinary medical pathologist (Julie Engiles, VMD, DACVP). Multiple stains are used to determine score values. Images in FIG. 39 show worst affected area of section selected blindly by the pathologist.
Kidney IC-GN Scoring Method (Smith, Dong et al. 2007): […]

Data set [2] concerns NZM mice. Description: Antibody secreting cell Elispot (anti-Smith, anti-dsDNA ASC), spleens of NZM mice (Example 3). It counts as in vivo, mouse. The procedure: FIG. 49 depicts the frequency of anti-Smith antibody secreting cells in the spleens of NZM mice. NZM treated mice spleens were processed for splenocytes for ex vivo Elispot assays. Elispot wells were coated with 10 μg/mL of purified smith antigen or ovalbumin protein as a third party background control antigen. Fresh, whole splenocytes were added to each well at 500,000 cells per well in cell culture medium. Cells were incubated overnight at 37° C. Developed wells provided spots that were counted as frequency of ASCs per million splenocytes.
FIG. 50 depicts the frequency of anti-dsDNA antibody secreting cells in the spleens of NZM mice. NZM treated mice spleens were processed for splenocytes for ex vivo Elispot assays. Elispot wells were coated with 10 μg/mL of bovine dsDNA or ovalbumin protein as a third party background control antigen. Fresh, whole splenocytes were added to each well at 500,000 cells per well in cell culture medium. Cells were incubated overnight at 37° C. Developed wells provided spots that were counted as frequency of ASCs per million splenocytes.
B-cell Elispot components are ordered from MabTech (Nacka Strand, Sweden) and nitrocellulose IP filter plates are ordered from Millipore (Billerica, Mass.). Elispot wells are coated with either purified bovine thymus dsDNA (Sigma), purified bovine Smith antigen (GenWay) or boiled filtered purified chicken chromatin from lysed chicken red blood cells (Rockland, Gilbertsville, Pa.) at 10 μg/mL. Spleens are processed using glass homogenization (frosted slides). Dispersed cell contents are washed in sterile HBSS and RBCs lysed using 1×RBC lysis buffer (BioLegend, Cat #420301). Processed splenocytes are added to each well and are not stimulated with lipopolysaccharide (LPS) to avoid skewing of true ex vivo frequencies of antibody-secreting cell types (ASCs). Anti-mouse pan-IgG is used as a positive control for total IgG producing ASCs and is used to normalize results. Frequencies for each antigen are identified in an initial test phase for each model. For chromatin and total IgG only, 30,000 splenocytes are added to each well; for Smith antigen and dsDNA, 500,000 cells are added to each well. Different numbers of splenocytes are added for different antigens due to saturation limits of spot frequencies per well. B-cell Elispots are incubated overnight at 37° C. To develop each assay, secondary antibody is added to each well, incubated, washed and alkaline phosphatase strepavidin (Jackson ImmunoResearch, West Grove, Pa.) is used as the conjugate; substrate used is BCIP-NBT (MabTech, Cincinnati, Ohio). Plates are developed until spots are visible. All Elispot analyses are performed using an Immunospot C.T.L. scanner and Biospot software (Cellular Technology Ltd., Shaker Heights, Ohio). Results are shown as values from which media and cells only wells are subtracted. Some values are negative due to high background.

For data set [3], the system named is NZM mice. Description: Spleen CD38/CD138+ plasma cells by flow cytometry, NZM mice (Example 3).
In data set [4] the test system is IκBα. Description: IκBα accumulation ELISA in kidney 3 hours post dosing, NZM mice (Example 2). It counts as in vivo, mouse. The method, then:
Samples are homogenized frozen using a PT 10-35 Polytron homogenizer (VWR, no. 97036-082). […] Spleen proteasome activity is analyzed using 20S fluorogenic assay (Cayman Chemical Company, Cat #10008041, Lot #0414698-1) and modulation of proteasome activity in the kidney is analyzed using the IκBα accumulation ELISA assay (Cell Signaling, Cat #7355, Lot #17).
In general terms: An ELISA detects its analyte on a solid surface through an enzyme-linked reagent.

Data set [5] relates to NZM mice. Description: Serum IL-12 by Luminex, NZM mice (Example 3). Format: in vivo, mouse. The procedure: FIG. 48 depicts serum IL-12 concentration in NZM mice. Mean±SEM values for the concentration of mouse serum IL-12 from treated NZM mice at the end of the study.
For the processing of serum samples for cytokine analysis, frozen plasma at −80° C. is thawed on ice, vortexed, and centrifuged for 10 minutes (10,000×g) to remove debris and aggregates. A total of 25-50 μL of serum is used for Luminex assays following the manufacturer's instructions. Ten different mouse cytokines are measured using the mouse cytokine 20-plex bead kit (Invitrogen, Carlsbad, Calif., no. LMC0006). Briefly, filter plates (Millipore, Billerica, Mass., no. MAIPSWU10), are pre-wet with 200 μL of wash solution (kit component) and 25 μL of beads are added per well. Serum samples are diluted and a total volume of 50 μL is added per well (ie, 25 μL of sample serum plus 25 μL of assay diluent as provided by the manufacturer). Plates with beads are incubated for 2 hours at room temperature (RT) on an orbital shaker in the dark. At the end of the incubation, plate(s) are washed twice in kit buffer, secondary biotinylated antibody is added at a 1:10 dilution (100 μL) in biotin diluent provided with the kit. Plates are incubated at RT for 1 hour in the dark then washed twice in kit buffer. Strepavidin in assay diluent is added at 100 μL per well, then incubated for 30 minutes at RT in the dark. The plates are washed 3 times then 100 μL of kit wash solution is added and agitated for 2-3 minutes at RT in the dark. Plates are run immediately following this incubation period on a Luminex xMAP 200 unit with data acquisition and analysis software (Invitrogen, San Diego, Calif., no. MAP0200). All bead washing is performed using a vacuum manifold unit (Pall, Ann Arbor, Mich. no. 5017). For all cytokine Luminex assays, values below the limit of detection set by the lowest point along the standard or set by the manufacturer are considered out of range and are not estimated, but assumed the lowest point along the standard curve for that particular assay.

In data set [6] the test system is MRL/lpr mice. In words: Serum C3 complement ELISA, MRL/lpr mice. It counts as in vivo, mouse. The source says:
Mice are tracked on an individual basis.

For data set [7] the following is noted: in vivo; cited from earlier work.

As for `CC(C)C[C@H](NC(=O)[C@@H](NC(=O)c1cccc(-c2ccccc2)n1)[C@@H](C)O)B(O)O` [COMPOUND A, [(1R)-1-[[(2S,3R)-3-hydroxy-2-[6-phenyl-pyridine-2-carbonyl)amino]-1-oxobutyl]amino]-3-methylbutylboronic acid], the “combined average renal histopathology blinded score decrease vs vehicle” value in data set [1] (Group 1 (regimen: Table 42)) is 53%; in data set [1] (Group 2 (regimen: Table 42)), 43.6%; in data set [1] (Group 3 (regimen: Table 42)) it was 18.9%; in data set [1] (Group 4 (regimen: Table 42)) it was 48.7%; in data set [1] (Group 5 (regimen: Table 42)), 40.5%. For the same compound, the “anti-sdDNA ASC decrease vs vehicle” value in data set [2] (Group 1 (regimen: Table 42)) was 97.9%; in data set [2] (Group 2 (regimen: Table 42)), 96.4%; in data set [2] (Group 4 (regimen: Table 42)), 100.7%; in data set [2] (Group 5 (regimen: Table 42)) it was 95.9%. The “anti-smith ASC decrease vs vehicle” value in data set [2] (Group 1 (regimen: Table 42)) is listed as 98.7%; in data set [2] (Group 2 (regimen: Table 42)), 96.6%; in data set [2] (Group 4 (regimen: Table 42)), 98.6%; in data set [2] (Group 5 (regimen: Table 42)), 97.6%. Besides, the “spleen CD138/CD38 double positive plasma B cells decrease vs vehicle” value is 56.6% in data set [3] (Group 1 (regimen: Table 42)); 38.1% in data set [3] (Group 2 (regimen: Table 42)); 49.8% in data set [3] (Group 4 (regimen: Table 42)); 24.3% in data set [3] (Group 5 (regimen: Table 42)); 47.8% in data set [3] (Group 6 (regimen: Table 42)). Further, the “PD IκBα accumulation, percent change vs vehicle” value in data set [4] (G1 3 mg/kg ip, 1× wk) is listed as “+33%”; in data set [4] (G2 3 mg/kg ip, 2× wk) it was “+60%”. Besides, the “p, kidney IκBα accumulation 3 hours post dosing vs G9 Vehicle 1× wk ip” value in data set [4] (G2 3 mg/kg 2× wk ip) is “p < 0.05”. The “kidney IκBα increase above vehicle” value in data set [4] (twice weekly administration) is recorded as about 40%. Also, the “serum IL-12 decrease vs vehicle” value in data set [5] (Group 1 (regimen: Table 42)) is reported as 92.8%; in data set [5] (Group 2 (regimen: Table 42)), 76.6%; in data set [5] (Group 4 (regimen: Table 42)) it was 75.7%; in data set [5] (Group 5 (regimen: Table 42)) it was 70.8%. Also, the “serum C3 concentration increase over vehicle” value in data set [6] (treated orally, day 99) is on record as 128%.
On to `CC(C)C[C@H](NC(=O)[C@H](Cc1ccccc1)NC(=O)c1cnccn1)B(O)O` [bortezomib, reference compound], for which the “combined average renal histopathology blinded score decrease vs vehicle” value in data set [1] (Group 7, ip) was determined as 19.4%; in data set [1] (Group 8, sc), 43.6%. Also, the “anti-dsDNA ASC decrease vs vehicle” value in data set [2] (Group 7, ip) is recorded as 64.7%; in data set [2] (Group 8, sc) it was 88.9%. For the same compound, the “anti-smith ASC decrease vs vehicle” value worked out at 46.3% in data set [2] (Group 7, ip) and 82.4% in data set [2] (Group 8, sc). In addition, the “spleen CD138/CD38 double positive plasma B cells decrease vs vehicle” value in data set [3] (Group 7, ip) is listed as 35.4%; in data set [3] (Group 8, sc), 57.8%. Further, the “PD IκBα accumulation, percent change vs vehicle” value in data set [4] (G3 0.3 mg/kg ip, 1× wk) is “+61%”; in data set [4] (G4 0.3 mg/kg ip, 2× wk) it was “+29%”. Further, in data set [7], the serious side effects result was “polyneuropathy, thrombocytopenia and gastrointestinal complications”. Moreover, the “serum IL-12 decrease vs vehicle” value came out at 65.8% in data set [5] (Group 7, ip) and 75.6% in data set [5] (Group 8, sc). For the same compound, the “serum C3 relative to vehicle” value in data set [6] (bortezomib treatment groups) is “did not exhibit a significant increase in serum C3”.
